For 36 compounds, agonistic activity results are on record in patent US8173638B2 (Boehringer Ingelheim International GmbH, priority 2006, dated 2012).

T1 sequence (P34972 whole entry): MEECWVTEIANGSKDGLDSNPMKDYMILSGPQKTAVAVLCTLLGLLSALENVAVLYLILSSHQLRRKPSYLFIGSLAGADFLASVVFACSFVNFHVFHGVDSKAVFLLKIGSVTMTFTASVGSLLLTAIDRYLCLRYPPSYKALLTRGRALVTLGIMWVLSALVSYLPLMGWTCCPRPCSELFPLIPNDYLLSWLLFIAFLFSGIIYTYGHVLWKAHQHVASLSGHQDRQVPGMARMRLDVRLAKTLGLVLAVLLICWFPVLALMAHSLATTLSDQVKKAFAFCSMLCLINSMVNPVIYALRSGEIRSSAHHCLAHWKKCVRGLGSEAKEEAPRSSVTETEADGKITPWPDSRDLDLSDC

This assay has as its target T1, human CB2R (Homo sapiens, UniProt P34972).
T1 construct: host or cells: CHO cells
Description: CB2R mediated modulation of cAMP synthesis. The assay is classed as cell-based. The settings on record: found through the use of the described assays (CB2 agonists); qualitative statement. The method, then:
B. CB2R Mediated Modulation of cAMP Synthesis:
CHO cells expressing human CB2R (Euroscreen) were plated at a density of 5000 cells per well in 384 well plates and incubated overnight at 37° C. After removing the media, the cells were treated with test compounds diluted in stimulation buffer containing 1 mM IBMX, 0.25% BSA and 10 uM Forskolin. The assay was incubated for 30 minutes at 37° C. Cells were lysed and the cAMP concentration was measured using DiscoverX-XS cAMP kit, following the manufacturer's protocol. In this setting, agonists will decrease forskolin induced production of cAMP while inverse agonists will further increase forskolin induced production of cAMP. EC50 of agonists were calculated as follows. The maximal amount of cAMP produced by forskolin compared to the level of cAMP inhibited by 1 uM CP55940 is defined as 100%. […] Data was analyzed using a four-parameter logistic model. (Model 205 of XLfit 4.0).
As for `CC(C)c1ccc(NC(=O)N2CCCN(C(=O)CC3CCCCC3)CC2)cc1` [4-(2-Cyclohexyl-acetyl)-[1,4]diazepane-1-carboxylic acid (4-isopropyl-phenyl)-amide], the agonistic activity result is “agonistic activity”. To `CC(C)(C)c1ccc(NC(=O)N2CCCN(C(=O)CC3CCCCC3)CC2)cc1` [4-(2-Cyclohexyl-acetyl)-[1,4]diazepane-1-carboxylic acid (4-tert-butyl-phenyl)-amide] belongs “agonistic activity”; to `CC(C)c1ccc(NC(=S)N2CCCN(C(=O)CC3CCCC3)CC2)cc1` [4-(2-Cyclopentyl-acetyl)-[1,4]diazepane-1-carbothioic acid (4-isopropyl-phenyl)-amide], “agonistic activity”. For the compound `CC(=O)N1CCc2ccc(NC(=O)N3CCCN(C(=O)CC4CCCC4)CC3)cc21` [4-(2-Cyclopentyl-acetyl)-[1,4]diazepane-1-carboxylic acid (1-acetyl-2,3-dihydro-1H-indol-6-yl)-amide], the agonistic activity result is “agonistic activity”. To `O=C(CC1CCCC1)N1CCCN(C(=O)Nc2ccc3c(c2)OC(F)(F)O3)CC1` [4-(2-Cyclopentyl-acetyl)-[1,4]diazepane-1-carboxylic acid (2,2-difluoro-benzo[1,3]dioxol-5-yl)-amide] belongs “agonistic activity”; to `O=C(CC1CCCC1)N1CCCN(C(=O)Nc2ccc(Cl)cc2Cl)CC1` [4-(2-Cyclopentyl-acetyl)-[1,4]diazepane-1-carboxylic acid (2,4-dichloro-phenyl)-amide], “agonistic activity”; to `O=C(CC1CCCC1)N1CCCN(C(=O)Nc2cc(Cl)ccc2Cl)CC1` [4-(2-Cyclopentyl-acetyl)-[1,4]diazepane-1-carboxylic acid (2,5-dichloro-phenyl)-amide], “agonistic activity”. For the compound `O=C(CC1CCCC1)N1CCCN(C(=O)Nc2ccc3ccccc3c2)CC1` [4-(2-Cyclopentyl-acetyl)-[1,4]diazepane-1-carboxylic acid (2-naphthyl)-amide], the agonistic activity result was “agonistic activity”. To `O=C(CC1CCCC1)N1CCCN(C(=O)Nc2ccc(Cl)c(Cl)c2)CC1` [4-(2-Cyclopentyl-acetyl)-[1,4]diazepane-1-carboxylic acid (3,4-dichloro-phenyl)-amide] belongs “agonistic activity”; to `O=C(CC1CCCC1)N1CCCN(C(=O)Nc2cc(Cl)cc(Cl)c2)CC1` [4-(2-Cyclopentyl-acetyl)-[1,4]diazepane-1-carboxylic acid (3,5-dichloro-phenyl)-amide], “agonistic activity”. To `O=C(CC1CCCC1)N1CCCN(C(=O)Nc2cccc(C(F)(F)F)c2)CC1` [4-(2-Cyclopentyl-acetyl)-[1,4]diazepane-1-carboxylic acid (3-trifluoromethyl-phenyl)-amide] belongs “agonistic activity”. To `O=C(CC1CCCC1)N1CCCN(C(=O)Nc2ccc(-c3ccccc3)cc2)CC1` [4-(2-Cyclopentyl-acetyl)-[1,4]diazepane-1-carboxylic acid (4-biphenyl)-amide] belongs “agonistic activity”. In the case of `CCCC(=O)c1ccc(NC(=O)N2CCCN(C(=O)CC3CCCC3)CC2)cc1` [4-(2-Cyclopentyl-acetyl)-[1,4]diazepane-1-carboxylic acid (4-butyryl-phenyl)-amide], the agonistic activity result is recorded as “agonistic activity”. With `CCc1ccc(NC(=O)N2CCCN(C(=O)CC3CCCC3)CC2)cc1` [4-(2-Cyclopentyl-acetyl)-[1,4]diazepane-1-carboxylic acid (4-ethyl-phenyl)-amide], the agonistic activity result is “agonistic activity”. To `CC(C)c1ccc(NC(=O)N2CCCN(C(=O)CC3CCCC3)CC2)cc1` [4-(2-Cyclopentyl-acetyl)-[1,4]diazepane-1-carboxylic acid (4-isopropyl-phenyl)-amide] belongs “agonistic activity”; to `CS(=O)(=O)c1ccc(NC(=O)N2CCCN(C(=O)CC3CCCC3)CC2)cc1` [4-(2-Cyclopentyl-acetyl)-[1,4]diazepane-1-carboxylic acid (4-methanesulfonyl-phenyl)-amide], “agonistic activity”; to `CSc1ccc(NC(=O)N2CCCN(C(=O)CC3CCCC3)CC2)cc1` [4-(2-Cyclopentyl-acetyl)-[1,4]diazepane-1-carboxylic acid (4-methylsulfanyl-phenyl)-amide], “agonistic activity”. To `CCCCCc1ccc(NC(=O)N2CCCN(C(=O)CC3CCCC3)CC2)cc1` [4-(2-Cyclopentyl-acetyl)-[1,4]diazepane-1-carboxylic acid (4-n-pentyl-phenyl)-amide] belongs “agonistic activity”; to `CCC(C)c1ccc(NC(=O)N2CCCN(C(=O)CC3CCCC3)CC2)cc1` (stereo not drawn) [4-(2-Cyclopentyl-acetyl)-[1,4]diazepane-1-carboxylic acid (4-sec-butyl-phenyl)-amide], “agonistic activity”; to `CC(C)(C)c1ccc(NC(=O)N2CCCN(C(=O)CC3CCCC3)CC2)cc1` [4-(2-Cyclopentyl-acetyl)-[1,4]diazepane-1-carboxylic acid (4-tert-butyl-phenyl)-amide], “agonistic activity”.

`O=C(CC1CCCC1)N1CCCN(C(=O)Nc2ccc(OC(F)(F)F)cc2)CC1` [4-(2-Cyclopentyl-acetyl)-[1,4]diazepane-1-carboxylic acid (4-trifluoromethoxy-phenyl)-amide]: the agonistic activity entry is recorded as “agonistic activity”. Then `O=C(CC1CCCC1)N1CCCN(C(=O)Nc2ccc(C(F)(F)F)cc2)CC1` [4-(2-Cyclopentyl-acetyl)-[1,4]diazepane-1-carboxylic acid (4-trifluoromethyl-phenyl)-amide], with “agonistic activity”; and `CC(C)(C)c1cc(NC(=O)N2CCCN(C(=O)CC3CCCC3)CC2)no1` [4-(2-Cyclopentyl-acetyl)-[1,4]diazepane-1-carboxylic acid (5-tert-butyl-isoxazol-3-yl)-amide], with “agonistic activity”; and `CCCC(O)c1ccc(NC(=O)N2CCCN(C(=O)CC3CCCC3)CC2)cc1` (stereo not drawn) [4-(2-Cyclopentyl-acetyl)-[1,4]diazepane-1-carboxylic acid [4-(1-hydroxy-butyl)-phenyl]-amide], with “agonistic activity”. In the case of `CC(C)(C)c1ccc(NC(=O)N2CCCN(C(=O)COc3ccccc3)CC2)cc1` [4-(2-Phenoxy-acetyl)-[1,4]diazepane-1-carboxylic acid (4-tert-butyl-phenyl)-amide], the agonistic activity result is listed as “agonistic activity”. To `O=C(COc1ccccc1)N1CCCN(C(=O)Nc2ccc3ccccc3c2)CC1` [4-(2-Phenoxy-acetyl)-[1,4]diazepane-1-carboxylic acid naphthalen-2-ylamide] belongs “agonistic activity”; to `CC(C)(C)c1ccc(NC(=O)N2CCCN(C(=O)CNc3ccccc3)CC2)cc1` [4-(2-Phenylamino-acetyl)-[1,4]diazepane-1-carboxylic acid (4-tert-butyl-phenyl)-amide], “agonistic activity”; to `CC(C)(C)c1ccc(NC(=O)N2CCCN(C(=O)CN3CCCCC3)CC2)cc1` [4-(2-Piperidin-1-yl-acetyl)-[1,4]diazepane-1-carboxylic acid (4-tert-butyl-phenyl)-amide], “agonistic activity”. For `O=C(CN1CCCCC1)N1CCCN(C(=O)Nc2ccc3ccccc3c2)CC1` [4-(2-Piperidin-1-yl-acetyl)-[1,4]diazepane-1-carboxylic acid naphthalen-2-ylamide], the agonistic activity entry is reported as “agonistic activity”. To `CC(C)(C)c1cc(NC(=O)N2CCCN(C(=O)CC3CCCO3)CC2)no1` (stereo not drawn) [4-(2-Tetrahydro-furan-2-yl-acetyl)-[1,4]diazepane-1-carboxylic acid (5-tert-butyl-isoxazol-3-yl)-amide] belongs “agonistic activity”; to `O=C(CC1CCOCC1)N1CCCN(C(=O)Nc2ccc3c(c2)OC(F)(F)O3)CC1` [4-(2-Tetrahydro-pyran-4-yl-acetyl)-[1,4]diazepane-1-carboxylic acid (2,2-difluoro-benzo[1,3]dioxol-5-yl)-amide], “agonistic activity”; to `O=C(CC1CCOCC1)N1CCCN(C(=O)Nc2ccc3ccccc3c2)CC1` [4-(2-Tetrahydro-pyran-4-yl-acetyl)-[1,4]diazepane-1-carboxylic acid (2-naphthyl)-amide], “agonistic activity”. Then `O=C(CC1CCOCC1)N1CCCN(C(=O)Nc2cc(Cl)cc(Cl)c2)CC1` [4-(2-Tetrahydro-pyran-4-yl-acetyl)-[1,4]diazepane-1-carboxylic acid (3,5-dichloro-phenyl)-amide], with “agonistic activity”; and `CCCCc1ccc(NC(=O)N2CCCN(C(=O)CC3CCOCC3)CC2)cc1` [4-(2-Tetrahydro-pyran-4-yl-acetyl)-[1,4]diazepane-1-carboxylic acid (4-butyl-phenyl)-amide], with “agonistic activity”. To `CCc1ccc(NC(=O)N2CCCN(C(=O)CC3CCOCC3)CC2)cc1` [4-(2-Tetrahydro-pyran-4-yl-acetyl)-[1,4]diazepane-1-carboxylic acid (4-ethyl-phenyl)-amide] belongs “agonistic activity”; to `CC(C)c1ccc(NC(=O)N2CCCN(C(=O)CC3CCOCC3)CC2)cc1` [4-(2-Tetrahydro-pyran-4-yl-acetyl)-[1,4]diazepane-1-carboxylic acid (4-isopropyl-phenyl)-amide], “agonistic activity”.
